From publication PMC6439305 (iScience, 2019)

Biological target: MOR-Venus (mu opioid receptor fused to Venus-YFP) (Mus musculus, UniProt P42866)
Test: Galphai2/Ggamma2 BRET2 dissociation assay, HEK293
Format: cell-based
Details: agonist, 10 min stimulation

MOR-Venus (mu opioid receptor fused to Venus-YFP), sequence (P42866 whole entry, the tested form may be a part): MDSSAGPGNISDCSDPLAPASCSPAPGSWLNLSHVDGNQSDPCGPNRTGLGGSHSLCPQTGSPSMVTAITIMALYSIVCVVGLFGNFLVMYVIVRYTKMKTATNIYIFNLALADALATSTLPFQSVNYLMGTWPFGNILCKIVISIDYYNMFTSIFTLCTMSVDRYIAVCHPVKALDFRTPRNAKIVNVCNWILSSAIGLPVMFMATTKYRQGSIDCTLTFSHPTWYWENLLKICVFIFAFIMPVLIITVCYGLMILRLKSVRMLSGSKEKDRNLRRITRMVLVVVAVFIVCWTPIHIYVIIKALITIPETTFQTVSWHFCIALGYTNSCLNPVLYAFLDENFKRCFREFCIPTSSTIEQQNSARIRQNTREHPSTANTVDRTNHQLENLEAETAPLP

Q: Which EC50 does the source give for `COc1ccc2c3c1O[C@H]1C(=O)CC[C@@]4(O)[C@@H](C2)N(C)CC[C@]314` [oxycodone] here?
A: The EC50 was “except for oxycodone, which had a trend of lower potency”.
